Marks after values point to notes of the source that are not given here.
Tested on: myeloperoxidase (MPO)
Assay: Myeloperoxidase (MPO) expression/activity inhibition in LPS-stimulated skin PMNs (ELISA on cell supernatants)
Type: cell-based
Settings: human skin PMNs stimulated with LPS, positive reference at 0.1%, 6 hours of incubation
Method: Tamarind Seed Polysaccharide (either alone and in combination with standardized botanical extracts) was tested for its ability to reduce inflammation cellular response through the measurement of the inhibition of myeloperoxidase (MPO) activity in polymorphonuclear neutrophils (PMNs). Inflammation, in particular during the acute phase, causes the migration of PMNs towards the inflammation site by chemotaxis. It is also known that the degree of MPO activity is directly proportional to the number of PMNs present in the tissue and to the inflammatory response. Thus, a reduction of the number of PMNs corresponds to a reduction in the activity of myeloperoxidase and it can he then concluded that the cellular response to inflammation is reduced accordingly.
Human skin PMNs were cultivated in bacteriological Petri dishes with 100 mm diameter. Cell culture medium was RPMI-1640 supplemented with Penicillin (100 U/ml), Streptomycin (100 mcg/ml), L-glutamin (2 mM) and 10% heat-inactivated and filtered FCS (Foetal Calf Serum). PMNs were then stimulated with the addition of LPS (lipopolysaccharides) to the cultivation media. […]
After 6 hours of incubation, the overall inhibition of myeloperoxidase (MPO) activity was quantified in the PMNs cell supernatants using an enzyme immunoassay kit (ELISA).

`C[C@@H]1C[C@H]2[C@@H]3CCC4=CC(=O)C=C[C@]4(C)[C@@]3(F)[C@@H](O)C[C@]2(C)[C@@]1(O)C(=O)CO` [Dexamethasone] was tested, and the “MPO Inhibition of Expression (Δ % vs. basal)” value was −30%*.
